Test results published in patent US20240390340A1 (INCYTE CORPORATION, priority 2023, published 2024).

What was measured:
KRAS G12D = KRAS G12D (Homo sapiens, UniProt P01116, G12D); test: GDP-GTP exchange assay (bodipy-GDP/GppNHp, SOS1), KRAS G12D; type: biochemical; conditions: bodipy-loaded KRAS G12D 2.5 nM, 4 h pre-incubation; value for the most potent isomer quoted for certain compounds; read-out: G12D (KRAS G12D exchange assay IC50)
KRAS G12V = KRAS G12V (Homo sapiens, UniProt P01116, G12V); test: GDP-GTP exchange assay (bodipy-GDP/GppNHp, SOS1), KRAS G12V; type: biochemical; conditions: KRAS G12V mutant; value for the most potent isomer quoted for certain compounds; read-out: G12V (KRAS G12V exchange assay IC50)
KRAS G12V, sequence (P01116 1-188 isoform P01116-2 G12V): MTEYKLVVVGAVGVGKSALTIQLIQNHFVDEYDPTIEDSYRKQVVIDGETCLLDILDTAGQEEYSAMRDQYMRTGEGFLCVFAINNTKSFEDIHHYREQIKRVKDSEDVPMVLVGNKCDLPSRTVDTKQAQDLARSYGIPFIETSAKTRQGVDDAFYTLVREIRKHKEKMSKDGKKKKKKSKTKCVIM

KRAS G12D, sequence (P01116 1-188 isoform P01116-2 G12D): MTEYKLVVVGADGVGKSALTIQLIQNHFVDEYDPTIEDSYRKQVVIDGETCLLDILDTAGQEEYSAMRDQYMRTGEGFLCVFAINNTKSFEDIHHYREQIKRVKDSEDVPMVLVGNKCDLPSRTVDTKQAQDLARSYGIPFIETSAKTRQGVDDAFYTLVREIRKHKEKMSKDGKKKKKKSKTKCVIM

With `Cc1nc2c(F)c(-c3cccc(Cl)c3Cl)c(CCC#N)cc2c2c1cc([C@H]1C[C@H](OCc3cccc(C(=O)N(C)C)c3)CN1C(=O)C1CC1)n2[C@H]1[C@H]2CN[C@@H]1C2` [Example 187] the IC50 (KRAS G12D) was ≤ 100 nM and the IC50 (KRAS G12V) was ≤ 100 nM.

`Cc1nc2c(F)c(-c3cccc(Cl)c3Cl)c(CCC#N)cc2c2c1cc([C@H]1C[C@H](Oc3ncco3)CN1C(=O)C1CC1)n2[C@H]1[C@H]2CN[C@@H]1C2` [Example 188] gave an IC50 (KRAS G12D) of 5000 to 10000 nM and an IC50 (KRAS G12V) of 5000 to 10000 nM.

`COC(=O)c1cccc(O[C@H]2C[C@H](c3cc4c(C)nc5c(F)c(-c6cccc(Cl)c6Cl)c(CCC#N)cc5c4n3[C@H]3[C@H]4CN[C@@H]3C4)N(C(=O)C3CC3)C2)c1` [Example 189] was tested, and the IC50 (KRAS G12D) was ≤ 100 nM and the IC50 (KRAS G12V) was ≤ 100 nM.

In the case of `COc1cc(F)cc(O[C@H]2C[C@H](c3cc4c(C)nc5c(F)c(-c6cccc(Cl)c6Cl)c(CCC#N)cc5c4n3[C@H]3[C@H]4CN[C@@H]3C4)N(C(=O)C3CC3)C2)c1` [Example 190], the IC50 (KRAS G12D) is reported as ≤ 100 nM and the IC50 (KRAS G12V) is reported as ≤ 100 nM.

With `Cc1nc2c(F)c(-c3cccc(Cl)c3Cl)c(CCC#N)cc2c2c1cc([C@H]1C[C@H](Oc3cc(Cl)cc(C#N)c3)CN1C(=O)C1CC1)n2[C@H]1[C@H]2CN[C@@H]1C2` [Example 191] the IC50 (KRAS G12D) was ≤ 100 nM and the IC50 (KRAS G12V) was ≤ 100 nM.

In the case of `Cc1nc2c(F)c(-c3cccc(Cl)c3Cl)c(CCC#N)cc2c2c1cc([C@H]1C[C@H](Oc3nn(C)c4ccccc34)CN1C(=O)C1CC1)n2[C@H]1[C@H]2CN[C@@H]1C2` [Example 192], the IC50 (KRAS G12D) is reported as ≤ 100 nM and the IC50 (KRAS G12V) is reported as ≤ 100 nM.

In the case of `Cc1nc2c(F)c(-c3cccc(Cl)c3Cl)c(CCC#N)cc2c2c1cc([C@H]1C[C@H](Oc3ccncc3)CN1C(=O)C1CC1)n2[C@H]1[C@H]2CN[C@@H]1C2` [Example 193], the IC50 (KRAS G12D) is reported as ≤ 100 nM and the IC50 (KRAS G12V) is reported as ≤ 100 nM.

In the case of `Cc1nc2c(F)c(-c3cccc(Cl)c3Cl)c(CCC#N)cc2c2c1cc([C@H]1C[C@H](Oc3cnn4ccccc34)CN1C(=O)C1CC1)n2[C@H]1[C@H]2CN[C@@H]1C2` [Example 194], the IC50 (KRAS G12D) is reported as ≤ 100 nM and the IC50 (KRAS G12V) is reported as ≤ 100 nM.

With `Cc1nc2c(F)c(-c3cccc(Cl)c3Cl)c(CCC#N)cc2c2c1cc([C@H]1C[C@H](OCc3c(F)cccc3F)CN1C(=O)c1ccccc1)n2[C@H]1[C@H]2CN[C@@H]1C2` [Example 195] the IC50 (KRAS G12D) was 100 to 1000 nM and the IC50 (KRAS G12V) was ≤ 100 nM.

In the case of `Cc1ccccc1C(=O)N1C[C@@H](OCc2c(F)cccc2F)C[C@@H]1c1cc2c(C)nc3c(F)c(-c4cccc(Cl)c4Cl)c(CCC#N)cc3c2n1[C@H]1[C@H]2CN[C@@H]1C2` [Example 196], the IC50 (KRAS G12D) is reported as 100 to 1000 nM and the IC50 (KRAS G12V) is reported as ≤ 100 nM.

With `Cc1nc2c(F)c(-c3cccc(Cl)c3Cl)c(CCC#N)cc2c2c1cc([C@H]1C[C@H](OCc3c(F)cccc3F)CN1C(=O)N(C)c1ccccc1)n2[C@H]1[C@H]2CN[C@@H]1C2` [Example 197] the IC50 (KRAS G12D) was 100 to 1000 nM and the IC50 (KRAS G12V) was ≤ 100 nM.

With `Cc1nc2c(F)c(-c3cccc(Cl)c3Cl)c(CCC#N)cc2c2c1cc([C@H]1C[C@H](Oc3ccnc(C#N)c3)CN1C(=O)C1CC1)n2[C@H]1[C@H]2CN[C@@H]1C2` [Example 198] the IC50 (KRAS G12D) was ≤ 100 nM and the IC50 (KRAS G12V) was ≤ 100 nM.

`COc1cccc(O[C@H]2C[C@H](c3cc4c(C)nc5c(F)c(-c6cccc(Cl)c6Cl)c(CCC#N)cc5c4n3[C@H]3C4CNC3C4)N(C(=O)C3CC3)C2)n1` (stereo partly shown) [Example 199] was tested, and the IC50 (KRAS G12D) was ≤ 100 nM and the IC50 (KRAS G12V) was ≤ 100 nM.

For `N#CCCc1cc2c(nc(-c3ccc(N4CCOCC4)nc3)c3cc([C@H]4C[C@H](OCc5c(F)cccc5F)CN4C(=O)C4CC4)n([C@H]4[C@H]5CN[C@@H]4C5)c32)c(F)c1-c1cccc(Cl)c1Cl` [Example 206], the IC50 (KRAS G12D) was 100 to 1000 nM and the IC50 (KRAS G12V) was ≤ 100 nM.

In the case of `N#CCCc1cc2c(nc(-c3ccc(N4CCCC4=O)nc3)c3cc([C@H]4C[C@H](OCc5c(F)cccc5F)CN4C(=O)C4CC4)n([C@H]4[C@H]5CN[C@@H]4C5)c32)c(F)c1-c1cccc(Cl)c1Cl` [Example 207], the IC50 (KRAS G12D) is reported as 100 to 1000 nM and the IC50 (KRAS G12V) is reported as ≤ 100 nM.

For `Cc1cc(-c2nc3c(F)c(-c4cccc(Cl)c4Cl)c(CCC#N)cc3c3c2cc([C@H]2C[C@H](OCc4c(F)cccc4F)CN2C(=O)C2CC2)n3[C@H]2[C@H]3CN[C@@H]2C3)cc(C)n1` [Example 208], the IC50 (KRAS G12D) was 5000 to 10000 nM and the IC50 (KRAS G12V) was 5000 to 10000 nM.

`Cc1nc2c(F)c(-c3cccc(Cl)c3Cl)c(CCC#N)cc2c2c1cc([C@H]1C[C@H](Oc3cccc(C#N)c3)[C@H](C)N1C(=O)C1CC1)n2[C@H]1[C@H]2CN[C@@H]1C2` [Example 209] was tested, and the IC50 (KRAS G12D) was ≤ 100 nM and the IC50 (KRAS G12V) was 100 to 1000 nM.

For `Cc1cc(CO[C@H]2C[C@H](c3cc4c(C)nc5c(F)c(-c6cccc(Cl)c6Cl)c(CCC#N)cc5c4n3[C@H]3[C@H]4CN[C@@H]3C4)N(C(=O)C3CC3)[C@H]2C)ns1` [Example 212], the IC50 (KRAS G12D) was ≤ 100 nM and the IC50 (KRAS G12V) was ≤ 100 nM.

With `Cc1nc2c(F)c(-c3cccc(Cl)c3Cl)c(CCC#N)cc2c2c1cc([C@H]1C[C@H](Oc3cccc(C#N)c3)[C@@H](C)N1C(=O)C1CC1)n2[C@H]1[C@H]2CN[C@@H]1C2` [Example 213] the IC50 (KRAS G12D) was 100 to 1000 nM and the IC50 (KRAS G12V) was ≤ 100 nM.

`Cc1nc2c(F)c(-c3cccc(Cl)c3Cl)c(CCC#N)cc2c2c1cc([C@H]1C[C@H](Oc3cnn(C(F)F)c3)[C@@H](C)N1C(=O)C1CC1)n2[C@H]1[C@H]2CN[C@@H]1C2` [Example 214] was tested, and the IC50 (KRAS G12D) was ≤ 100 nM and the IC50 (KRAS G12V) was ≤ 100 nM.
